In the experiment the test system is acetylcholine-bromide induced abdominal constriction response. The experiment is described as follows: Mouse Acetylcholine Bromide-Induced Abdominal Constriction Assay. It is filed as in vivo. The note with it: 30 min before i.p. 5.5 mg/kg acetylcholine bromide, 10 min observation.

One may read the % Inhibition as the relative decrease from the control value, in per cent. Regarding `CN1C[C@H]2CC[C@@H](c3ccc(F)cc3)[C@H]2C1` (relative stereo) [Cp-5], for the setting “po”, the “% Inhibition at 30 mg/kg” value is 87%.

With `CN1C[C@H]2CC[C@](O)(c3ccccc3)[C@H]2C1` (relative stereo) [Cp-1], the “% Inhibition at 30 mg/kg” value (po) is 87%.

For `CN1C[C@H]2CC[C@](O)(c3cccc(C(F)(F)F)c3)[C@H]2C1` (relative stereo) [Cp-3], the “% Inhibition at 30 mg/kg” value (po) turned out to be 87%.

Take `CN1C[C@H]2CC[C@@H](c3ccccc3)[C@H]2C1` (relative stereo) [Cp-4]: the “% Inhibition at 30 mg/kg” value (sc) came out at 100%.

On to `CN1C[C@H]2CC[C@@H](c3cccc(C(F)(F)F)c3)[C@H]2C1` (relative stereo) [Cp-6], for which the “% Inhibition at 30 mg/kg” value (sc) is 87%.

As to `CN1C[C@H]2CC[C@H](c3ccccc3)[C@H]2C1` (relative stereo) [Cp-7], the “% Inhibition at 30 mg/kg” value (sc) was 100%.

For `CN1C[C@H]2CC[C@](O)(c3ccc(F)cc3)[C@H]2C1` (relative stereo) [Cp-2], the “% Inhibition at 30 mg/kg” value (po) is listed as 87%.

Source of the values: US5541217A, “4-arylcyclopenta[c]pyrrole analgesics” (Ortho Pharmaceutical Corporation, priority 1995, dated 1996).
